Where two headings read alike, the source gives them in different places.
Tested on: Pfeiffer cells, lymphoma cells having EZH2 mutation (A677G)
Assay: Proliferation inhibition of cells of hematologic malignancies (CCK-8, 11 days)
Assay type: cell-based
Conditions: 11 days culture, read-out: Cell proliferation inhibitory effect (IC50)
Summary of the method: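 Pfeiffer lymphoma cells (EZH2 A677G) in RPMI1640 with 10% FBS were seeded at 10,000 cells/well and exposed to test material for 11 days, with compound replaced every 3–4 days. Viability was read by CCK-8 absorbance at 450 nm, and IC50 was derived by non-linear regression curve fitting.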

| IC50 (Homo sapiens, Pfeiffer, 264 h) | IC50 | SMILES |
| --- | --- | --- |
| ≤ 0.01 µM |  | CSc1cc(C)[nH]c(=O)c1CNC(=O)c1cc(-c2cnc(N3CCC(F)(F)CC3)nc2)c2c(c1C)OC(C)([C@H]1CC[C@H](N(C)C)CC1)O2 (stereo partly drawn) [Compound 8, 7-(2-(4,4-difluoropiperidin-1-yl)pyrimidin-5-yl)-2-(trans-4-(dimethylamino)cyclohexyl)-2,4-dimethyl-N-((6-methyl-4-(methylthio)-2-oxo-1,2-dihydropyridin-3-yl)methyl)benzo[d][1,3]dioxole-5-carboxamide] |
| ≤ 0.01 µM |  | CSc1cc(C)[nH]c(=O)c1CNC(=O)c1cc(-c2ccc(N3C[C@@H](C)O[C@@H](C)C3)nc2)c2c(c1C)OC(C)([C@H]1CC[C@H](N(C)CCc3ccccc3)CC1)O2 (stereo partly drawn) [Compound 112, 7-(6-((2S,6R)-2,6-dimethylmorpholino)pyridin-3-yl)-2,4-dimethyl-2-(trans-4-(methyl(phenethyl)amino)cyclohexyl)-N-((6-methyl-4-(methylthio)-2-oxo-1,2-dihydropyridin-3-yl)methyl)benzo[d][1,3]dioxole-5-carboxamide] |
|  | ≤ 0.01 µM | CSc1cc(C)[nH]c(=O)c1CNC(=O)c1cc(-c2ccc(N3C[C@@H](C)O[C@@H](C)C3)nc2)c2c(c1C)OC(C)([C@H]1CC[C@H](N(C)CC(F)(F)F)CC1)O2 (single isomer, unassigned) [Compound 107] |
| ≤ 0.01 µM |  | CSc1cc(C)[nH]c(=O)c1CNC(=O)c1cc(-c2c(C)noc2C)c2c(c1C)OC(C)([C@H]1CC[C@H](N(C)C)CC1)O2 (stereo partly drawn) [Compound 13, 2-(trans-4-(dimethylamino)cyclohexyl)-7-(3,5-dimethylisoxazol-4-yl)-2,4-dimethyl-N-((6-methyl-4-(methylthio)-2-oxo-1,2-dihydropyridin-3-yl)methyl)benzo[d][1,3]dioxole-5-carboxamide] |
| ≤ 0.01 µM |  | CSc1cc(C)[nH]c(=O)c1CNC(=O)c1cc(-c2ccc(N3CCC(F)(F)CC3)nc2)c2c(c1C)OC(C)([C@H]1CC[C@H](N(C)C)CC1)O2 (stereo partly drawn) [Compound 3, 7-(6-(4,4-difluoropiperidin-1-yl)pyridin-3-yl)-2-(trans-4-(dimethylamino)cyclohexyl)-2,4-dimethyl-N-((6-methyl-4-(methylthio)-2-oxo-1,2-dihydropyridin-3-yl)methyl)benzo[d][1,3]dioxole-5-carboxamide] |
| ≤ 0.01 µM |  | CSc1cc(C)[nH]c(=O)c1CNC(=O)c1cc(-c2ccc(N3C[C@@H](C)O[C@@H](C)C3)nc2)c2c(c1C)OC(C)([C@H]1CC[C@H](N(C)CC3OCCO3)CC1)O2 (stereo partly drawn) [Compound 32, 2-(trans-4-(((1,3-dioxolan-2-yl)methyl)(methyl)amino)cyclohexyl)-7-(6-((2S,6R)-2,6-dimethylmorpholino)pyridin-3-yl)-2,4-dimethyl-N-((6-methyl-4-(methylthio)-2-oxo-1,2-dihydropyridin-3-yl)methyl)benzo[d][1,3]dioxole-5-carboxamide] |
| ≤ 0.01 µM |  | COCCN(C)[C@H]1CC[C@H](C2(C)Oc3c(-c4ccc(OC)nc4)cc(C(=O)NCc4c(SC)cc(C)[nH]c4=O)c(C)c3O2)CC1 (stereo partly drawn) [Compound 28, 2-(trans-4-((2-methoxyethyl)(methyl)amino)cyclohexyl)-7-(6-methoxypyridin-3-yl)-2,4-dimethyl-N-((6-methyl-4-(methylthio)-2-oxo-1,2-dihydropyridin-3-yl)methyl)benzo[d][1,3]dioxole-5-carboxamide] |
| ≤ 0.01 µM |  | CSc1cc(C)[nH]c(=O)c1CNC(=O)c1cc(-c2ccc(F)nc2F)c2c(c1C)OC(C)([C@H]1CC[C@H](N(C)C)CC1)O2 (stereo partly drawn) [Compound 14, 7-(2,6-difluoropyridin-3-yl)-2-(trans-4-(dimethylamino)cyclohexyl)-2,4-dimethyl-N-((6-methyl-4-(methylthio)-2-oxo-1,2-dihydropyridin-3-yl)methyl)benzo[d][1,3]dioxole-5-carboxamide] |
|  | ≤ 0.01 µM | CSc1cc(C)[nH]c(=O)c1CNC(=O)c1cc(-c2cnc(N3C[C@@H](C)O[C@@H](C)C3)nc2)c2c(c1C)OC(C)([C@H]1CC[C@H](N(C)CC(F)(F)F)CC1)O2 (stereo partly drawn) [Compound 23, 7-(2-((2S,6R)-2,6-dimethylmorpholino)pyrimidin-5-yl)-2,4-dimethyl-2-(trans-4-(methyl(2,2,2-trifluoroethyl)amino)cyclohexyl)-N-((6-methyl-4-(methylthio)-2-oxo-1,2-dihydropyridin-3-yl)methyl)benzo[d][1,3]dioxole-5-carboxamide] |
| ≤ 0.01 µM |  | CSc1cc(C)[nH]c(=O)c1CNC(=O)c1cc(-c2ccc(F)cc2)c2c(c1C)OC(C)([C@H]1CC[C@H](N(C)C)CC1)O2 (stereo partly drawn) [Compound 10, 2-(trans-4-(dimethylamino)cyclohexyl)-7-(4-fluorophenyl)-2,4-dimethyl-N-((6-methyl-4-(methylthio)-2-oxo-1,2-dihydropyridin-3-yl)methyl)benzo[d][1,3]dioxole-5-carboxamide] |

The remaining lines, values behind:

| SMILES | IC50 (Homo sapiens, Pfeiffer, 264 h) | IC50 |
| --- | --- | --- |
| CSc1cc(C)[nH]c(=O)c1CNC(=O)c1cc(-c2ccc(N3C[C@@H](C)O[C@@H](C)C3)nc2)c2c(c1C)OC(C)(C1CCN(CCc3ccccc3)CC1)O2 (single isomer, unassigned) [Compound 56] |  | ≥ 0.1 µM |
| CCN1CCC(C2(C)Oc3c(-c4ccc(N5CCOCC5)nc4)cc(C(=O)NCc4c(SC)cc(C)[nH]c4=O)c(C)c3O2)CC1 (single isomer, unassigned) [Compound 66, 2-(1-ethylpiperidin-4-yl)-2,4-dimethyl-N-((6-methyl-4-(methylthio)-2-oxo-1,2-dihydropyridin-3-yl)methyl)-7-(6-morpholinopyridin-3-yl)benzo[d][1,3]dioxole-5-carboxamide] |  | ≤ 0.01 µM |
| CSc1cc(C)[nH]c(=O)c1CNC(=O)c1cc(-c2cnc(N3CCOCC3)nc2)c2c(c1C)OC(C)(C1CCN(CC(F)F)CC1)O2 (single isomer, unassigned) [Compound 72, 2-(1-(2,2-difluoroethyl)piperidin-4-yl)-2,4-dimethyl-N-((6-methyl-4-(methylthio)-2-oxo-1,2-dihydropyridin-3-yl)methyl)-7-(2-morpholinopyrimidin-5-yl)benzo[d][1,3]dioxole-5-carboxamide] |  | ≥ 0.1 µM |
| CSc1cc(C)[nH]c(=O)c1CNC(=O)c1cc(-c2ccc(N3C[C@@H](C)O[C@@H](C)C3)nc2)c2c(c1C)OC(C)(C1CCN(C(C)C)CC1)O2 (single isomer, unassigned) [Compound 51] |  | ≤ 0.01 µM |
| CSc1cc(C)[nH]c(=O)c1CNC(=O)c1cc(-c2ccc(N3C[C@@H](C)O[C@@H](C)C3)nc2)c2c(c1C)OC(C)(C1CCN(C3CCCCC3)CC1)O2 (single isomer, unassigned) [Compound 54] |  | ≥ 0.1 µM |
| CSc1cc(C)[nH]c(=O)c1CNC(=O)c1cc(-c2cnc(N3CCCCC3)nc2)c2c(c1C)OC(C)(C1CCN(CC(F)(F)F)CC1)O2 (centres unmarked) [Compound 39, 2,4-dimethyl-N-((6-methyl-4-(methylthio)-2-oxo-1,2-dihydropyridin-3-yl)methyl)-7-(2-(piperidin-1-yl)pyrimidin-5-yl)-2-(1-(2,2,2-trifluoroethyl)piperidin-4-yl)benzo[d][1,3]dioxole-5-carboxamide] | ≤ 0.01 µM |  |
| CSc1cc(C)[nH]c(=O)c1CNC(=O)c1cc(-c2cnc(N(C)C)nc2)c2c(c1C)OC(C)(C1CCN(CC(F)(F)F)CC1)O2 (centres unmarked) [Compound 35, 7-(2-(dimethylamino)pyrimidin-5-yl)-2,4-dimethyl-N-((6-methyl-4-(methylthio)-2-oxo-1,2-dihydropyridin-3-yl)methyl)-2-(1-(2,2,2-trifluoroethyl)piperidin-4-yl)benzo[d][1,3]dioxole-5-carboxamide] | ≤ 0.01 µM |  |
| CCN(C)c1ncc(-c2cc(C(=O)NCc3c(SC)cc(C)[nH]c3=O)c(C)c3c2OC(C)(C2CCN(CC(F)(F)F)CC2)O3)cn1 (centres unmarked) [Compound 78] | ≤ 0.01 µM |  |
| CSc1cc(C)[nH]c(=O)c1CNC(=O)c1cc(-c2ccc(N3CCCCC3)cc2)c2c(c1C)OC(C)(C1CCN(CC(F)(F)F)CC1)O2 (centres unmarked) [Compound 90, 2,4-dimethyl-N-((6-methyl-4-(methylthio)-2-oxo-1,2-dihydropyridin-3-yl)methyl)-7-(4-(piperidin-1-yl)phenyl)-2-(1-(2,2,2-trifluoroethyl)piperidin-4-yl)benzo[d][1,3]dioxole-5-carboxamide] | 0.01 to 0.1 µM |  |
| CSc1cc(C)[nH]c(=O)c1CNC(=O)c1cc(-c2cnc(N3CCCCC3)nc2)c2c(c1C)OC(C)([C@H]1CC[C@H](N(C)CC(F)(F)F)CC1)O2 (stereo partly drawn) [Compound 21, 2,4-dimethyl-2-(trans-4-(methyl(2,2,2-trifluoroethyl)amino)cyclohexyl)-N-((6-methyl-4-(methylthio)-2-oxo-1,2-dihydropyridin-3-yl)methyl)-7-(2-(piperidin-1-yl)pyrimidin-5-yl)benzo[d][1,3]dioxole-5-carboxamide] | ≤ 0.01 µM |  |
| CSc1cc(C)[nH]c(=O)c1CNC(=O)c1cc(-c2ccc(N3C[C@@H](C)O[C@@H](C)C3)nc2)c2c(c1C)OC(C)(C1CCN(CC(F)F)CC1)O2 (single isomer, unassigned) [Compound 47] |  | ≤ 0.01 µM |
| CCN1CCC(C2(C)Oc3c(-c4cnc(N5CCOCC5)nc4)cc(C(=O)NCc4c(SC)cc(C)[nH]c4=O)c(C)c3O2)CC1 (centres unmarked) [Compound 74, 2-(1-ethylpiperidin-4-yl)-2,4-dimethyl-N-((6-methyl-4-(methylthio)-2-oxo-1,2-dihydropyridin-3-yl)methyl)-7-(2-morpholinopyrimidin-5-yl)benzo[d][1,3]dioxole-5-carboxamide] |  | ≥ 0.1 µM |
| CSc1cc(C)[nH]c(=O)c1CNC(=O)c1cc(-c2ccc(N3C[C@@H](C)O[C@@H](C)C3)nc2)c2c(c1C)OC(C)([C@H]1CC[C@H](N3CC(OC(C)C)C3)CC1)O2 (stereo partly drawn) [Compound 105, 7-(6-((2S,6R)-2,6-dimethylmorpholino)pyridin-3-yl)-2-(trans-4-(3-isopropoxyazetidin-1-yl)cyclohexyl)-2,4-dimethyl-N-((6-methyl-4-(methylthio)-2-oxo-1,2-dihydropyridin-3-yl)methyl)benzo[d][1,3]dioxole-5-carboxamide] | ≥ 0.1 µM |  |
